We go through seven compounds from PMC4912613, “A broad analysis of resistance development in the malaria parasite” (Nature Communications, 2016).

Assay [1] deals with P. falciparum. Kind of assay: Rate of killing (parasite viability) assay. It is filed as cell-based, Plasmodium falciparum. The note with it: profile compared with chloroquine, pyrimethamine, atovaquone; 48 h treatment. The procedure: To identify whether selection success could be predicted by compound speed of action, and to gain a greater insight into the potential mechanisms of action, assays were performed to test the killing rate (Supplementary Data 1)[33]. To quantify the killing rate, viability time-course profiles for each compound were compared with antimalarials known to have fast (chloroquine), moderate (pyrimethamine) or slow (atovaquone) rate of action. These rates were then compared with other compound characteristics, including cross-resistance profile, selection success, potency and structural characteristics to identify any possible trends. […] One compound's rate of killing, MMV666080, was unidentifiable due to compound availability. No correlation was seen between compound structure and speed of action. Additionally, there was no correlation found between killing rate and compound potency against 3D7, nor between potency and selection success (Supplementary Fig. 2).
Rate of killing was determined for each compound following a previously described methodology, which uses the invasion of fresh erythrocytes as surrogate of parasite viability. Briefly, parasites were treated with compounds for 48 h. Compound was washed out and fresh-labelled erythrocytes added to the treated parasites. Double stained erythrocytes (RBC label plus parasite DNA label) were quantified and per cent of survival determined.

Assay [2] has as its system ATQ-R5 (cytb F267V, parent 3D7). Put plainly: Cross-resistance EC50 assay, ATQ-R5. Format: cell-based, Plasmodium falciparum. The note with it: Plasmodium falciparum, 3D7; SYBR green 72 hour assay; asynchronized parasites; 96-well or 1536-well format; ATQ-R5. An excerpt: To evaluate potential overlapping activity against known antimalarial drug targets, we performed dose-response studies with each compound against our assembled set of drug-resistant lines and their corresponding parents, in an asexual blood stage proliferation assay (Table 1). Comparisons were made to the drug-sensitive strain 3D7 when a parent was unavailable (TM90C2A, W2 and Dd2). As laboratories conducted EC50 assays with different strains and protocols, all comparisons were made between assays from the same laboratory and under the same assay conditions. Compounds displaying >5-fold EC50 shifts relative to the parent or sensitive strain were flagged as having potentially non-novel targets. Average fold shifts per strain ranged from 0.82 to 2.34, with a median of 1.23 indicating there was not common resistance to any one resistant clone. No resistance patterns were observed when classifying the compounds based on chemical structure, but this was not surprising given the diversity of compounds chosen. On the other hand, given that these confirmed compounds were derived from larger unconfirmed hit lists to which some filtration criteria may have been applied (for example, elimination of obvious dihydrofolate reductase inhibitors[32]), some[10][11][12][13] pre-existing bias may exist in the set. […]
Alternatively, a SYBR Green-based proliferation approach was used for the 72-h assay, as previously described. Briefly, a culture of either synchronized or asynchronous parasitized RBCs (0.3% parasitemia and 4% haematocrit) in screening medium (identical to supplemented medium above except no serum was added) was exposed to serial drug dilutions. Plates were incubated at 37 °C and gassed with 93% N2, 4% CO2 and 3% O2 for 72 h. Following incubation, 10 × SYBR Green I (Invitrogen; supplied in 10,000 × concentration) in lysis buffer ([…], 5 mM EDTA, 0.16% Saponin wt per vol and 1.6% Triton X vol per vol) was added to the wells and the plates were incubated overnight at room temperature before plate reading. EC50 assays were repeated three times, taking the average EC50 value from each assay set, and removing any outliers using a single iteration of Grubbs' test, eliminating values with z-scores above the critical z-value (α=0.05). The raw EC50 values for synchronized parasites assayed in a 384-well format are listed in Supplementary Data 4. The raw EC50 values for asynchronous parasites assayed in a 96 or 1536-well format are listed in Supplementary Data 5.
EC50 values for each strain were compared with those of the corresponding parent strain to determine fold-shift changes and identify resistance. To minimize the cause variance between assays, all comparisons were conducted between strains assayed under identical conditions. A one-way ANOVA followed by a Dunnet's post-test was conducted in GraphPad Prism to identify significant changes between the parent and resistant strain.

A word on the EC50: it is the concentration giving half of the maximal effect. `O=C(Nc1ccsc1C(=O)NC1CCCCC1)c1ccc(F)cc1` [MMV665939]: the “Killing Rate” value in assay [1] is “ATQ (slow)”. Also, the concentration for a half-maximal effect (EC50) in assay [2] turned out to be 3.43 µM.
With `Nc1ccc(-c2nc3cc(Cc4ccc5[nH]c(-c6ccc(N)cc6)nc5c4)ccc3[nH]2)cc1` [MMV665943], the “Killing Rate” value in assay [1] is “CQ (fast)”. Besides, in assay [2], the EC50 was 0.042 µM.
As for `COc1cc(C(=O)ON=C(N)Cc2cccc3ccccc23)cc(OC)c1OC` [MMV666687], the “Killing Rate” value in assay [1] is listed as “CQ (fast)”. Moreover, the EC50 in assay [2] was 0.914 µM.
In the case of `c1cc(-c2cnc3ccc(-c4ccc(N5CCOCC5)cc4)nn23)ccn1` [MMV668311], the “Killing Rate” value in assay [1] is “CQ (fast)”. Also, in assay [2], the concentration for a half-maximal effect (EC50) turned out to be 0.029 µM.
Regarding `c1cncc(-c2cc(N3CCC(CN4CCOCC4)CC3)nc(-c3ccncc3)n2)c1` [MMV668399], the “Killing Rate” value in assay [1] is listed as “PYR (moderate)”. Moreover, in assay [2], the half-maximal effective concentration (EC50) was 0.339 µM.
In the same order, the values of `COc1ccc2c3c([nH]c2c1)[C@H](CO)N(C(C)=O)CC31CCN(C(=O)Nc2ccccc2F)CC1` [MMV673482] are “PYR (moderate)” and 0.025 µM.
On to `CN(C)CCCNCc1ccc(-c2ccc(Cl)c(Cl)c2)o1` [MMV673964], for which the “Killing Rate” value in assay [1] is reported as “CQ (fast)”. For the same compound, the concentration giving a half-maximal response (EC50) in assay [2] amounted to 0.108 µM.
